Data reported in patent US20250145600A1, “2-((4-((S)-2-(4-CHLORO-2-FLUOROPHENYL)-2-METHYLBENZO[D][1,3]DIOXOL-4-YL)PIPERIDIN-1-YL)METHYL)-1-(((S)-OXETAN-2-YL)METHYL)-1H-IMIDAZOLE DERIVATIVES AS ACTIVATORS OF THE GLP1 RECEPTOR FOR THE TREATMENT OF OBESITY” (Novartis AG, priority 2022, published 2025).

Target: human GLP1R (Homo sapiens, UniProt P43220)
Assay: Human GLP1R DERET internalization assay
Format: cell-based
Settings: HEK293-SNAP-hGLP1R-GloSensor cells; for EC50: top concentration 30 μM; for Emax: relative to GLP1(7-36)
Description: Compounds of formula (I) according to the invention were tested in the following cellular assays that measure the intracellular cAMP concentration, beta-arrestin recruitment and receptor internalization. The cAMP is generated by the activation of GLP1R. The extent to which the GLP1R is internalized into the cell and away from the plasma membrane following activation is also shown in Table 2. EC50 for each assay is defined as the concentration of the compound that leads to half of the maximum response (after baseline correction). Emax is defined as the maximum response observed for the test compound, normalized to the maximum response observed for the endogenous ligand (GLP1(7-36)) to GLP1R.
Human GLP1R DERET Internalization Assay
The extent to which agonists internalize the human GLP1R was determined based on an optimized version of a RealTime FRET-based ‘DERET’ (Dissociation Enhanced Resonance Energy Transfer) assay. The technology relies on labeling of the SNAP-tagged GPCR with a SNAP-Lumi-Terbium (donor fluorophore, Cisbio, cat #SSNPTBD). The compounds are incubated with the cells over-expressing the GPCR of interest in the presence of an excess of fluorescein (acceptor fluorophore). When the GPCR is on the cell surface, the donor signal is quenched by the acceptor and the donor/acceptor ratio is low. As the GPCR internalizes, the donor signal is no longer quenched, and the acceptor is no longer excited so the donor/acceptor ratio increases.
HEK293-SNAP-hGLP1R-GloSensor cells (stably overexpressing SNAP-tagged hGLP1R) were seeded overnight in white 384-well poly-D-Lysine coated plates (Greiner Bio One, cat #781945) in regular DMEM growth medium (Gibco, cat #11965-092, 10% heat-inactivated FBS, 10 mM HEPES, 1× penicillin/streptomycin, 0.5 mg/mL geneticin (Gibco, cat #10131-035) and 0.25 mg/mL hygromycin B (Invitrogen, cat #10687010). On the assay day, cell medium was removed and 100 nM SNAP-Lumi-Tb reagent was added in Opti-MEM solution. The cells were incubated at 37° C. for 1 h. Cells were washed using a plate washer in assay buffer [1×HBSS (10× Gibco, cat #14065-056), 20 mM Hepes (Gibco, cat #15630-080), 1 mM CaCl2 (Fluka, cat #21114-1L), 1 mM MgCl2 (Ambion, cat #AM9530G) pH7.4], and 20 μL buffer with 0.1% BSA was added to each well. After leaving cells to equilibrate for […] at 37° C., 10 μL of Fluorescein (sodium salt, Sigma, cat #F6377, diluted in buffer) was added at 25 μM final concentration. To generate triplicate dose response curves, compounds were serially diluted 3-fold in assay buffer, then added to the cell assay plate to a final volume of 40 μL and final top concentrations starting at 30 μM. In the same plate and assay buffer as the tested compounds, a GLP1 (7-36) peptide (Bachem, cat #H-6795) control curve was included at a final top concentration of 1 μM in order to establish EC100. EC0 wells with buffer only were also included. The plate FRET fluorescence was measured immediately using a Perkin Elmer Envision with LANCE/DELFIA D400 single mirror, excitation filter X320, and emission filters M615_203 (donor emission) and M515 (acceptor emission), and then measured every 30 min. […] Plates were kept at 37° C. between reads. Data was expressed as the ratio of donor/acceptor emissions using Microsoft Excel and plotted in GraphPad Prism. In order to determine EC50 and Emax for internalization, data was calculated and expressed as percent of the GLP1 (7-36) EC100 control wells: [(sample signal−mean EC0 signal)/(mean EC100 of GLP1 (7-36) signal−mean EC0 signal)]*100 using Microsoft Excel. Curve fitting for EC50 determinations was performed using GraphPad Prism. The 4-parameter logistic model, Hill slope was used:
where Y is the functional response; X is the compound concentration; bottom is A0 or the minimum value (at 0 dose); top is Ainf or the maximum value (at infinite dose); EC50 is the point of inflection (i.e. the point on the sigmoid shaped curve halfway between A0 and Ainf). […]

Sequence of human GLP1R (P43220 24-463): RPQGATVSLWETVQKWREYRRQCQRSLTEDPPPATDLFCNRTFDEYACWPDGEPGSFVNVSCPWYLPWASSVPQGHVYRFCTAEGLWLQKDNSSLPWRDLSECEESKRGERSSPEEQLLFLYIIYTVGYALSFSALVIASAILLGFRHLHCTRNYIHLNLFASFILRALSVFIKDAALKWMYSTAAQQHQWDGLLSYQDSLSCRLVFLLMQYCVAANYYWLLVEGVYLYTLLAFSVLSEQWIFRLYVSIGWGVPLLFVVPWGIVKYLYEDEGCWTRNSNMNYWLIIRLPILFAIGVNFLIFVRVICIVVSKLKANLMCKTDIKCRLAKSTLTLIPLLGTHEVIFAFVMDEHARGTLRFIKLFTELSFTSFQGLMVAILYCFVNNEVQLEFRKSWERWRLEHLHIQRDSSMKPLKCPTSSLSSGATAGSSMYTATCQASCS

| Structure (SMILES) | EC50 | Emax |
| --- | --- | --- |
| Cc1nc(CN2CCC(c3cccc4c3O[C@@](C)(c3ccc(Cl)cc3F)O4)CC2)n(C[C@@H]2CCO2)c1-c1nc(C(=O)O)c(C)o1 [Compound C-1, 2-(2-((4-((S)-2-(4-chloro-2-fluorophenyl)-2-methylbenzo[d][1,3]dioxol-4-yl)piperidin-1-yl)methyl)-4-methyl-1-(((S)-oxetan-2-yl)methyl)-1H-imidazol-5-yl)-5-methyloxazole-4-carboxylic acid] | > 30 µM | 8% |
| C[C@]1(c2ccc(Cl)cc2F)Oc2cccc(C3CCN(Cc4nc(C(F)(F)F)c(-c5nc(C(=O)O)co5)n4C[C@@H]4CCO4)CC3)c2O1 [Compound C-4, 2-(2-((4-((S)-2-(4-chloro-2-fluorophenyl)-2-methylbenzo[d][1,3]dioxol-4-yl)piperidin-1-yl)methyl)-1-(((S)-oxetan-2-yl)methyl)-4-(trifluoromethyl)-1H-imidazol-5-yl)oxazole-4-carboxylic acid] | > 30 µM | 1% |
| CCc1nc(CN2CCC(c3cccc4c3O[C@@](C)(c3ccc(Cl)cc3F)O4)CC2)n(C[C@@H]2CCO2)c1-c1nc(C(=O)O)co1 [Compound C-5, 2-(2-((4-((S)-2-(4-chloro-2-fluorophenyl)-2-methylbenzo[d][1,3]dioxol-4-yl)piperidin-1-yl)methyl)-4-ethyl-1-(((S)-oxetan-2-yl)methyl)-1H-imidazol-5-yl)oxazole-4-carboxylic acid] | > 30 µM | 6% |
| CCc1nc(CN2CCC(c3cccc4c3O[C@@](C)(c3ccc(Cl)cc3F)O4)CC2)n(C[C@H]2CCO2)c1-c1nc(C(=O)O)co1 [Compound C-7, 2-(2-((4-((S)-2-(4-chloro-2-fluorophenyl)-2-methylbenzo[d][1,3]dioxol-4-yl)piperidin-1-yl)methyl)-4-ethyl-1-(((R)-oxetan-2-yl)methyl)-1H-imidazol-5-yl)oxazole-4-carboxylic acid] | 0.03 µM | 51% |
| Cc1nc(CN2CCC(c3cccc4c3O[C@@](C)(c3ccc(Cl)cc3F)O4)CC2)n(C[C@@H]2CCO2)c1-c1nc(C(=O)O)co1 [Compound C-9, 2-(2-((4-((S)-2-(4-chloro-2-fluorophenyl)-2-methylbenzo[d][1,3]dioxol-4-yl)piperidin-1-yl)methyl)-4-methyl-1-(((S)-oxetan-2-yl)methyl)-1H-imidazol-5-yl)oxazole-4-carboxylic acid] | > 30 µM | 11% |
| CCc1oc(-c2c(C)nc(CN3CCC(c4cccc5c4O[C@@](C)(c4ccc(Cl)cc4F)O5)CC3)n2C[C@@H]2CCO2)nc1C(=O)O [Compound C-10, 2-(2-((4-((S)-2-(4-chloro-2-fluorophenyl)-2-methylbenzo[d][1,3]dioxol-4-yl)piperidin-1-yl)methyl)-4-methyl-1-(((S)-oxetan-2-yl)methyl)-1H-imidazol-5-yl)-5-ethyloxazole-4-carboxylic acid] | > 30 µM | 7% |
| Cc1oc(-c2nc(CN3CCC(c4cccc5c4O[C@@](C)(c4ccc(Cl)cc4F)O5)CC3)n(C[C@@H]3CCO3)c2C)nc1C(=O)O [Compound C-12, 2-(2-((4-((S)-2-(4-chloro-2-fluorophenyl)-2-methylbenzo[d][1,3]dioxol-4-yl)piperidin-1-yl)methyl)-5-methyl-1-(((S)-oxetan-2-yl)methyl)-1H-imidazol-4-yl)-5-methyloxazole-4-carboxylic acid] | > 30 µM | 45% |
| Cc1c(-c2nc(C(=O)O)co2)nc(CN2CCC(c3cccc4c3O[C@@](C)(c3ccc(Cl)cc3F)O4)CC2)n1C[C@@H]1CCO1 [Compound C-13, 2-(2-((4-((S)-2-(4-chloro-2-fluorophenyl)-2-methylbenzo[d][1,3]dioxol-4-yl)piperidin-1-yl)methyl)-5-methyl-1-(((S)-oxetan-2-yl)methyl)-1H-imidazol-4-yl)oxazole-4-carboxylic acid] | 1.28 µM | 42% |
| Cc1c(-c2nc(C(F)(F)F)c(C(=O)O)o2)nc(CN2CCC(c3cccc4c3O[C@@](C)(c3ccc(Cl)cc3F)O4)CC2)n1C[C@@H]1CCO1 [Compound C-14, 2-(2-((4-((S)-2-(4-chloro-2-fluorophenyl)-2-methylbenzo[d][1,3]dioxol-4-yl)piperidin-1-yl)methyl)-5-methyl-1-(((S)-oxetan-2-yl)methyl)-1H-imidazol-4-yl)-4-(trifluoromethyl)oxazole-5-carboxylic acid] | > 30 µM | 20% |
| Cc1c(-c2cnc(C(=O)O)o2)nc(CN2CCC(c3cccc4c3O[C@@](C)(c3ccc(Cl)cc3F)O4)CC2)n1C[C@@H]1CCO1 [Compound C-16, 5-(2-((4-((S)-2-(4-chloro-2-fluorophenyl)-2-methylbenzo[d][1,3]dioxol-4-yl)piperidin-1-yl)methyl)-5-methyl-1-(((S)-oxetan-2-yl)methyl)-1H-imidazol-4-yl)oxazole-2-carboxylic acid] | 2.94 µM | 50% |
| Cc1c(-c2cc(C(=O)O)n(C)n2)nc(CN2CCC(c3cccc4c3O[C@@](C)(c3ccc(Cl)cc3F)O4)CC2)n1C[C@@H]1CCO1 [Compound C-17, 3-(2-((4-((S)-2-(4-chloro-2-fluorophenyl)-2-methylbenzo[d][1,3]dioxol-4-yl)piperidin-1-yl)methyl)-5-methyl-1-(((S)-oxetan-2-yl)methyl)-1H-imidazol-4-yl)-1-methyl-1H-pyrazole-5-carboxylic acid] | > 30 µM | 6% |
| Cc1c(-c2coc(C(=O)O)n2)nc(CN2CCC(c3cccc4c3O[C@@](C)(c3ccc(Cl)cc3F)O4)CC2)n1C[C@@H]1CCO1 [Compound C-18, 4-(2-((4-((S)-2-(4-chloro-2-fluorophenyl)-2-methylbenzo[d][1,3]dioxol-4-yl)piperidin-1-yl)methyl)-5-methyl-1-(((S)-oxetan-2-yl)methyl)-1H-imidazol-4-yl)oxazole-2-carboxylic acid] | 2.38 µM | 86% |
| Cc1cc(-c2nc(CN3CCC(c4cccc5c4O[C@@](C)(c4ccc(Cl)cc4F)O5)CC3)n(C[C@@H]3CCO3)c2C)oc1C(=O)O [Compound C-19, 5-(2-((4-((S)-2-(4-chloro-2-fluorophenyl)-2-methylbenzo[d][1,3]dioxol-4-yl)piperidin-1-yl)methyl)-5-methyl-1-(((S)-oxetan-2-yl)methyl)-1H-imidazol-4-yl)-3-methylfuran-2-carboxylic acid] | > 30 µM | 34% |
| Cc1nc(CN2CCC(c3cccc4c3O[C@@](C)(c3ccc(Cl)cc3F)O4)CC2)n(C[C@@H]2CCO2)c1-c1coc(C(=O)O)n1 [Compound C-20, 4-(2-((4-((S)-2-(4-chloro-2-fluorophenyl)-2-methylbenzo[d][1,3]dioxol-4-yl)piperidin-1-yl)methyl)-4-methyl-1-(((S)-oxetan-2-yl)methyl)-1H-imidazol-5-yl)oxazole-2-carboxylic acid] | > 30 µM | 5% |
| Cc1nc(CN2CCC(c3cccc4c3O[C@@](C)(c3ccc(Cl)cc3F)O4)CC2)n(C[C@@H]2CCO2)c1-c1cc(C(=O)O)n(C)n1 [Compound C-21, 3-(2-((4-((S)-2-(4-chloro-2-fluorophenyl)-2-methylbenzo[d][1,3]dioxol-4-yl)piperidin-1-yl)methyl)-4-methyl-1-(((S)-oxetan-2-yl)methyl)-1H-imidazol-5-yl)-1-methyl-1H-pyrazole-5-carboxylic acid] | > 30 µM | 2% |
